Source: patent US20060100154A1, “Long-acting gonadotropin-releasing hormone analogs and methods of use thereof” (YEDA RESEARCH AND DEVELOPMENT CO, priority 2005, published 2006)
Square brackets hold non-standard residues; d marks the D form. d(pGlu) = O=C1CC[C@H](C(=O)O)N1

Assays:
LH release = test: In vivo LH release after intraperitoneal administration; design: species or system rat; details: six h after administration; 0.04 vs 0.4 nmol/rat i.p.
Protocol: The ability of [D-Lys^6(Emo)]GnRH to bind GnRH receptors and promote LH release in vitro, prompted the evaluation of its in vivo activity.
Blood samples were withdrawn by cardiac puncture under light ether anesthesia at the indicated time intervals, and serum LH levels were determined by RIA as described above (FIG. 6). Results are the mean±SEM of LH concentrations in the serum of five animals/experimental group. The LH concentration was determined using three different dilutions of each serum sample. Similar results were obtained in two other experiments.

[1] = target: T1, rat pituitary GnRH receptors (Rattus norvegicus, UniProt P30969); test: Displacement binding assay with 125I[D-Lys6]GnRH on rat pituitary membranes; details: vs [D-Lys6]GnRH
T1 construct: from tissue; host or cells: rat pituitary membranes (Wistar-derived rats)
T1 sequence (P30969 1-327): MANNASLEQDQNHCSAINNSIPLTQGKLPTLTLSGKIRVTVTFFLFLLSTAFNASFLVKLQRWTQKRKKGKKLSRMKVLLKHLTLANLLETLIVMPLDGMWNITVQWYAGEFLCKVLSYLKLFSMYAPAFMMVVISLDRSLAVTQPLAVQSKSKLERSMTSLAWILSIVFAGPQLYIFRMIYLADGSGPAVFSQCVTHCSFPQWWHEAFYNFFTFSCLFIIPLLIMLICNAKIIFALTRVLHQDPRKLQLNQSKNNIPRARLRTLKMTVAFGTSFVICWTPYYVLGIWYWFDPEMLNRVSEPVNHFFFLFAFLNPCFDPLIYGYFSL
Protocol: Specific binding was calculated by subtracting the non-specific binding from the maximal binding, determined in the absence of any competing peptide. Results are the mean of two experiments carried out in triplicates. SEM values are omitted for clarity (FIG. 3).

[2] = test system: testes and prostate glands; test: Long-term treatment of male rats: weight of testes and prostate glands; type: in vivo; details: 0.1 nmol/rat daily for 7 days vs parent peptide 1 nmol/rat; FIG. 7
Protocol: Control rats were injected daily with 0.5 mL of PBS. Rats were sacrificed 24 h after the last injection, and the testes and prostate glands were immediately dissected and weighed (FIG. 7). Results are the meant±SEM of the weight of the organs (six animals/experimental group).

[3] = test system: primary cultures of rat pituitary cells; test: LH releasing potency in primary rat pituitary cell cultures; type: cell-based; details: 4 h, 37° C.; compared to [D-Lys6]GnRH; FIG. 4
Protocol: The media were then collected and LH concentration were analyzed by double-antibody radioimmunoassay (RIA)^32 using kits kindly supplied by the National Institute of Arthritis, Metabolism and Digestive Diseases (NIMDD). Results (FIG. 4) are expressed in terms of LH-RP-3 rat reference preparation, and are the mean±SEM of LH concentration of two experiments (4 wells/experimental group, each). The basal release after 4 h was 9.41±2 ng/mL.

[4] = Relative hydrophobicity by elution from RP-18 HPLC column; type: physicochemical; details: percent of buffer B in which the analog was eluted from RP-18 column
Excerpt: All chemicals and reagents were of analytical grade. Rink amide resin, 9-fluorenylmethoxycarbonyl (Fmoc) protected amino acid derivatives, and all the reagents for solid-phase peptide synthesis were purchased from Novabiochem (Läufelfingen, Switzerland). Side-chain protecting groups employed for peptide synthesis were as follows: Arg, 2,2,4,6,7-pentamethyldihydrobenzofuran-5-sulfonyl (Pbf); His, trityl (Trt); D-Lys, 4-methyltrityl (Mtt) or tert-butyloxycarbonyl (Boc); Trp, tert-butyloxycarbonyl (Boc); Ser and Tyr, tert-butyl (tBu). Reversed phase HPLC was performed on a Spectra-Physics SP-8800 liquid chromatography system equipped with an Applied Biosystems 757 variable wavelength absorbance detector. HPLC prepacked columns were: Lichrocart, containing Lichrosorb RP-18 (250×10 mm; 7 μm, Merck, Darmstadt, Germany) for semi-preparative purification and Lichrospher 100 RP-18 (250×4 mm; 5 μm, Merck, Darmstadt, Germany) and wide pore butyl C4 (250×4.6 mm; 5 μm, J. T. Baker Inc., Phillipsburg, N.J.) for analytical purposes. HPLC purification and analysis were achieved by using a linear gradient established between 0.1% trifluoroacetic acid […] in water as buffer A and 0.1% TFA in 75% aqueous acetonitrile as buffer B. Eluent composition was 10-100% B over 40 mlin, using RP-18 column, and a gradient of 0-100% B over 40 min employing a wide pore butyl (C4) column. N-(2noro-1,4-naphtoqumonyl)-β-alanine (NQ), 1,6,8-Trihydroxy-3-carboxylic acid-anthraquinone (Emo) and 2-hydroxymethyl-anthraquinone hemiglutarate (AntrQ) were synthesized as described^14,24,27 (for chemical structure see FIG. 1).

αT3-1 cells [5] = test: In vitro toxicity / phototoxicity (XTT cell survival); type: cell-based, mouse
Protocol: αT3-1 cells (50,000 cells/well) were plated in 96-well tissue culture plates in 0.1 mL of complete medium. After 24 h the medium was changed and cells were incubated in the same medium (without serum and phenol red) containing different concentrations of the tested compounds for 4 h at 37° C. The cells were then washed (×3) with PBS and illuminated (λmax=400 nm) in PBS. The fluence rate was 14.3 mW cm^−2 with a total fluence of 17 J cm^−2. Following illumination the media were replaced by complete medium and the plates were incubated for additional 24 h at 37° C. Cell survival was determined using the XTT (Biological Industries, Beit-Haemek, Israel) kit following the manufacture's protocol. Values are expressed as % survival.

[6] = target: T2, human serum albumin (HSA) (Homo sapiens, UniProt P02768); test: Binding to HSA; type: in vitro ADME; details: 37° C., 3 h; FIG. 8
T2 construct: purchased Sigma, St. Louis, Mo
Protocol: The concentration of HSA in the solution was determined using a molar extinction coefficient of 39,000 M^−1 cm^−1 at 277.5 nm^33. The unbound compound was then separated from the HSA solution by applying it on to a Centricon® concentrator column (Amicon Inc., Beverly, Mass.) with a band pass membrane of […] according to the manufacture's protocol. The HSA bound compound (˜20 μL) was then precipitated by adding it to acetonitrile (1 mL). The supernatant was kept and the precipitate was dissolved in PBS (100 μL) and re-precipitated. The combined supernatants were evaporated, the residue was dissolved in water containing 0.1% TFA (buffer A) and analyzed by HPLC to determine the amount of the tested compounds. Results represent the mean of two experiments (FIG. 8).

αT3-1 cells [7] = test: DNA fragmentation assay; type: cell-based, mouse; details: 10 μM, FIG. 10
Protocol: FIG. 10. DNA cleavage in cells treated with [D-Lys^6(Emo)]GnRH and emodic acid. αT3-1 cells were incubated; in darkness with 10 μM of the tested compounds, washed and illuminated. After 24 h of incubation DNA was isolated and analyzed by gel electrophoresis. Lanes 1, 3 and 5 represent DNA of cells treated with 1% DMSO in PBS, emodic acid or [D-Lys^6(Emo)]GnRH, respectively, followed by illumination. Lane 2, 4 and 6 represent cells treated with 1% DMSO in PBS, emodic acid, or [D-Lys^6(Emo)]GnRH, respectively, in darkness.
αT3-1 cells (×10^6/dish) were incubated in phenol red and serum free complete medium (37° C., 5% CO2) with the tested compounds for 5 h in the dark. Cells were then washed with PBS (×3) and illuminated or remained in darkness as described earlier. The media were then replaced by complete medium and cells were incubated for additional 24 h. DNA was then isolated, using Wizard® genomic DNA purification kit (Promega, Madison, Wis.) following the company's protocol and analyzed by gel electrophoresis (0.4% cross linked agarose, ethidium bromide staining).

[8] = test system: primary cultures of rat pituitary cells; test: Effect of GnRH antagonist on LH secretion stimulated by [D-Lys6(Emo)]GnRH; type: cell-based; details: [D-Lys6(Emo)]GnRH 20 pM, antagonist 100 nM, 4 h; FIG. 5
Protocol: To determine the effect of a GnRH antagonist ([D-pyr^1, D-Phe^2, D-Trp^3,6]GnRH) on the induction of LH secretion from primary cultures of rat pituitary cells stimulated by [D-Lys^6(Emo)]GnRH, cells were incubated for 4 h at 37° C. with [D-Lys^6(Emo)]GnRH (20 pM) in the absence or presence of the GnRH antagonist (100 nM). The media were collected and LH concentration was determined by RIA (FIG. 5). Results are the mean±SEM of LH concentrations obtained from two experiments (4 wells/experimental group, each).

T2 sequence (P02768 25-609): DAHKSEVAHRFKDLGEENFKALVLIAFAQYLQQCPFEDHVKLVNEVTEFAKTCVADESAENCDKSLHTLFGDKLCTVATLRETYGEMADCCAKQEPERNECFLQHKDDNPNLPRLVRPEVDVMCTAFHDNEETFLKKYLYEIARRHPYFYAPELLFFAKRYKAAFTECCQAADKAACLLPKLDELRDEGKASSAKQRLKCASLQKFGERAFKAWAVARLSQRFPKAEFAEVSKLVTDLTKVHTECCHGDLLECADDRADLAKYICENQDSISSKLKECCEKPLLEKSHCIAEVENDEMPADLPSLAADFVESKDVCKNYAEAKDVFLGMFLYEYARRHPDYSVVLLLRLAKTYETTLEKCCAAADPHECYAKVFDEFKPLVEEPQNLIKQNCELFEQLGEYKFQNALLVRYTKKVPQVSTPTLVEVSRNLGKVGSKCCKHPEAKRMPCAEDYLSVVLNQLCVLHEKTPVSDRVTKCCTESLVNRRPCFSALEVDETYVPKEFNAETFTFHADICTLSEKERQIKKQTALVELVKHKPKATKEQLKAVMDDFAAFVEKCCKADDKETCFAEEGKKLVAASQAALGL

## CC(C)C[C@H](NC(=O)[C@@H](CCCCNC(=O)c1cc(O)c2c(c1)C(=O)c1cc(O)cc(O)c1C2=O)NC(=O)[C@H](Cc1ccc(O)cc1)NC(=O)[C@H](CO)NC(=O)[C@H](Cc1c[nH]c2ccccc12)NC(=O)[C@H](Cc1c[nH]cn1)NC(=O)[C@@H]1CCC(=O)N1)C(=O)N[C@@H](CCCNC(=N)N)C(=O)N1CCC[C@H]1C(=O)NCC(N)=O [[D-Lys^6(Emo)]GnRH, [D-Lys^6(1,3,8-trihydroxy-6-carboxy-anthraquinone)]GnRH]
LH release
  LH levels relative to group treated with [D-Lys6]GnRH: about 6 folds
[1]
  reduction of affinity to GnRH receptors compared to the parent peptide: about 3 fold
[2]
  decrease in testicular and ventral prostate gland weights: greater decrease
[3]
  LH releasing activity in vitro: highest bioactivity
[4]
  Hydrophobicity (% B): 66 % B
αT3-1 cells [5]; 10 μM, illuminated, FIG. 9
  phototoxicity to αT3-1 cells: did not exhibit any toxicity
αT3-1 cells [5]; incubated in the dark
  toxicity to αT3-1 cells in the dark: did not show any toxicity
[6]
  binding to HSA: binds significantly to HSA
αT3-1 cells [7]; darkness
  DNA fragmentation in the dark: did not cause any DNA fragmentation
αT3-1 cells [7]; illuminated
  DNA fragmentation upon illumination: but not [D-Lys^6(Emo)]GnRH (lane 5) induced DNA fragmentation

## [D-pGlu^1, D-Phe^2, D-Trp^3,6]GnRH ([d(pGlu)][dF][dW]SY[dW]LRPG-NH2; SMILES CC(C)C[C@H](NC(=O)[C@@H](Cc1c[nH]c2ccccc12)NC(=O)[C@H](Cc1ccc(O)cc1)NC(=O)[C@H](CO)NC(=O)[C@@H](Cc1c[nH]c2ccccc12)NC(=O)[C@@H](Cc1ccccc1)NC(=O)[C@H]1CCC(=O)N1)C(=O)N[C@@H](CCCNC(=N)N)C(=O)N1CCC[C@H]1C(=O)NCC(N)=O) [GnRH antagonist]
[8]
  inhibition of [D-Lys6(Emo)]GnRH-induced LH secretion: completely inhibited
